Consider one molecule from patent US20040029138A1, “Global electronic medicine response profile testing network” (priority 2003, published 2004).

One series deals with subjects with IBS. Put plainly: Double blind, placebo controlled clinical trials of alosetron for IBS, response stratified by 5HTT genotype. In kind it is in vivo, human. The note with it: for Relief of IBS symptoms (subjects achieving relief): 12 weeks treatment. On the procedure:
Genetic samples were obtained from 219 female human subjects enrolled in clinical trials of alosetron for the treatment of IBS. Using PCR technology as is known in the art, an insertion/deletion genetic marker was assayed in the 5-hydroxytryptamine-transporter gene (5HTT gene). The alleles were labeled as “del” (deletion) or “ins” (insertion) resulting in three possible genotypes (del/del; del/ins or ins/ins). The subjects' response to alosetron in the clinical trial setting was reviewed and correlated with genotype. In the double blind, placebo controlled clinical trials; subjects received 12 weeks of treatment with either alosetron or a placebo. A favorable response to alosetron was when a subject reported relief of IBS symptoms during six weeks of the twelve-week trial. The incidence of various other effects, including constipation, was also recorded. The response of subjects to treatment with alosetron in the clinical trial was stratified according to genotype.

Series [1] deals with patients with Irritable Bowel Syndrome (IBS). The note with it: double blind, placebo controlled studies; cited from earlier work.

Counter-ions that a name gives are not always drawn.

With `Cc1[nH]cnc1CN1CCc2c(c3ccccc3n2C)C1=O` [alosetron, Alosetron hydrochloride], the “Relief of IBS symptoms (subjects achieving relief)” value worked out at 68% in the series with subjects with IBS (del/del 5HTT genotype subjects (21/31), relief during six weeks of the twelve-week trial); 64% in the series on subjects with IBS (del/ins 5HTT genotype subjects (21/33)); 58% in the series on subjects with IBS (ins/ins 5HTT genotype subjects (22/38)). Besides, the “Constipation reported (incidence)” value turned out to be 13% in the series on subjects with IBS (del/del subjects (n=31), 4 subjects); 30% in the series with subjects with IBS (del/ins subjects (n=33), 10 subjects); 21% in the series on subjects with IBS (ins/ins subjects (n=38), 8 subjects); 21% in the series with subjects with IBS (total group of subjects receiving alosetron (n=102)). The “Effectiveness versus placebo in producing relief of IBS symptoms” value in the series on subjects with IBS (in each of the three 5HTT genotypes) is recorded as “more effective than placebo”. For the same molecule, the “Effect on pain and bowel function in IBS patients” value in series [1] is “reduce pain and improve bowel function”.
